Assay results as given in patent publication US20250215039A1, “NUCLEOSIDES FOR TREATING CANCER” (PRIMEFOUR THERAPEUTICS, INC., priority 2022, published 2025).
Read-outs that look alike come from different tables or passages of the source.

Test system: cancer cell lines
Assay: Cancer cell proliferation activity (CellTiterGlo, 72 h)
Assay type: cell-based
Details: 72 h, 72 h, read-out: IC50 cell proliferation
Outline: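 Cells seeded overnight at 37 °C, then dosed with compound at 0.1% final DMSO and incubated 72 h at 37 °C (5% or 10% CO2 by medium).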

## CCC[C@]1(CO)O[C@@H](n2cnc3c(N)nc(F)nc32)[C@H](O)[C@@H]1O [compound 195, (2R,3S,4R,5R)-5-(6-amino-2-fluoro-9H-purin-9-yl)-2-(hydroxymethyl)-2-propyltetrahydrofuran-3,4-diol]
5637 (bladder)
  IC50: 230 nM
CLS439 (bladder)
  IC50: 400 nM
HS729 (muscle)
  IC50: 150 nM
J82 (bladder)
  IC50: 160 nM
JAR (placenta)
  IC50: 100 nM
MT3 (breast)
  IC50: 120 nM
PANCI (pancreas)
  IC50: 2250 nM
PC3 (prostate)
  IC50: 220 nM
RD (muscle)
  IC50: 210 nM
T24 (bladder)
  IC50: 300 nM
Homo sapiens, 22Rv1, 72 h, 22RV1 (prostate)
  IC50: 540 nM
Homo sapiens, 786-0, 72 h, 786O (kidney)
  IC50: 110 nM
Homo sapiens, A204, 72 h, A204 (muscle)
  IC50: 140 nM
Homo sapiens, A549, 72 h, A549 (lung)
  IC50: 60 nM
Homo sapiens, A673, 72 h, A673 (bone)
  IC50: 700 nM
Homo sapiens, A2780, 72 h, A2780 (ovary)
  IC50: 390 nM
Homo sapiens, A-375, 72 h, A375 (skin)
  IC50: 110 nM
Homo sapiens, A-431, 72 h, A431 (skin)
  IC50: 70 nM
Homo sapiens, ACHN, ACHN (kidney)
  IC50: 90 nM
Homo sapiens, ASPC1, 72 h, ASPC1 (pancreas)
  IC50: 130 nM
Homo sapiens, BT-20, 72 h, BT20 (breast)
  IC50: 110 nM
Homo sapiens, BXPC-3, 72 h, BXPC3 (pancreas)
  IC50: 80 nM
Homo sapiens, C-33-A, C33A (endometrial)
  IC50: 380 nM
Homo sapiens, CAKI-1, 72 h, CAKI1 (kidney)
  IC50: 20 nM
Homo sapiens, COLO 205, 72 h, COLO205 (colon)
  IC50: 330 nM
Homo sapiens, COLO-678, 72 h, COLO678 (colon)
  IC50: 100 nM
Homo sapiens, Ca-Ski, CASKI (endometrial)
  IC50: 50 nM
Homo sapiens, Caco-2, 72 h, CACO2 (colon)
  IC50: 280 nM
Homo sapiens, Calu-6, 72 h, CALU6 (lung)
  IC50: 40 nM
Homo sapiens, DLD-1, 72 h, DLD1 (colon)
  IC50: 510 nM
Homo sapiens, DU-145, 72 h, DU145 (prostate)
  IC50: 30 nM
Homo sapiens, EFO-21, 72 h, EFO21 (ovary)
  IC50: 150 nM
Homo sapiens, EJ-28, 72 h, EJ28 (bladder)
  IC50: 140 nM
Homo sapiens, Granta-519, 72 h, GRANTA-519 (hematological)
  IC50: 160 nM
Homo sapiens, HCT-15, 72 h, HCT15 (colon)
  IC50: 290 nM
Homo sapiens, HCT-116, 72 h, HCT116 (colon)
  IC50: 250 nM
Homo sapiens, HEK293, 72 h, HEK293 (kidney)
  IC50: 200 nM
Homo sapiens, HL-60, 72 h, HL-60 (hematological)
  IC50: 100 nM
Homo sapiens, HT-29, 72 h, HT29 (colon)
  IC50: 260 nM
Homo sapiens, HT-1080, 72 h, HT1080 (connective tissue)
  IC50: 270 nM
Homo sapiens, HeLa, HELA (endometrial)
  IC50: 80 nM
Homo sapiens, HepG2, 72 h, HEPG2 (liver)
  IC50: 170 nM
Homo sapiens, Hs-578T, HS578T (breast)
  IC50: 60 nM
Homo sapiens, IGROV-1, 72 h, IGROV1 (ovary)
  IC50: 80 nM
Homo sapiens, IMR-90, 72 h, IMR90 (lung)
  IC50: 60 nM
Homo sapiens, JEG-3, 72 h, JEG3 (placenta)
  IC50: 100 nM
Homo sapiens, JIMT-1, 72 h, JIMT1 (breast)
  IC50: 30 nM
Homo sapiens, K562, 72 h, K-562 (hematological)
  IC50: 530 nM
Homo sapiens, Kasumi 1, 72 h, KASUMI-1 (hematological)
  IC50: 20 nM
Homo sapiens, L-363, 72 h, L-363 (hematological)
  IC50: 90 nM
Homo sapiens, LoVo, LOVO (colon)
  IC50: 30 nM
Homo sapiens, MCF7, 72 h, MCF7 (breast)
  IC50: 390 nM
Homo sapiens, MDA-MB-231, 72 h, MDAMB231 (breast)
  IC50: 240 nM
Homo sapiens, MDA-MB-435, 72 h, MDAMB435 (skin)
  IC50: 320 nM
Homo sapiens, MDA-MB-436, 72 h, MDAMB436 (breast)
  IC50: 80 nM
Homo sapiens, MDA-MB-468, 72 h, MDAMB468 (breast)
  IC50: 70 nM
Homo sapiens, MG-63, 72 h, MG63 (bone)
  IC50: 1730 nM
Homo sapiens, MHH-ES-1, 72 h, MHHES1 (bone)
  IC50: 170 nM
Homo sapiens, MIA PaCa-2, 72 h, MIAPACA2 (pancreas)
  IC50: 1750 nM
Homo sapiens, MINO, MINO (hematological)
  IC50: 20 nM
Homo sapiens, MV4-11, 72 h, MV4-11 (hematological)
  IC50: 20 nM
Homo sapiens, NCI-H23, 72 h, NCI-H23 (lung)
  IC50: 220 nM
Homo sapiens, NCI-H82, 72 h, NCIH82 (lung)
  IC50: 170 nM
Homo sapiens, NCI-H292, 72 h, NCIH292 (lung)
  IC50: 150 nM
Homo sapiens, NCI-H460, 72 h, NCIH460 (lung)
  IC50: 170 nM
Homo sapiens, OVCAR-3, 72 h, OVCAR3 (ovary)
  IC50: 80 nM
Homo sapiens, OVCAR-4, 72 h, OVCAR4 (ovary)
  IC50: 150 nM
Homo sapiens, PLC-PRF-5, 72 h, PLCPRF5 (liver)
  IC50: 1040 nM
Homo sapiens, Panc1005, 72 h, PANC1005 (pancreas)
  IC50: 180 nM
Homo sapiens, Ramos, RAMOS (hematological)
  IC50: 140 nM
Homo sapiens, SAOS-2, 72 h, SAOS2 (bone)
  IC50: 100 nM
Homo sapiens, SF-268, 72 h, SF268 (brain)
  IC50: 300 nM
Homo sapiens, SF-295, 72 h, SF295 (brain)
  IC50: 220 nM
Homo sapiens, SK-BR-3, 72 h, SKBR3 (breast)
  IC50: 30 nM
Homo sapiens, SK-HEP1, 72 h, SKHEP1 (liver)
  IC50: 60 nM
Homo sapiens, SK-LMS-1, 72 h, SKLMS1 (uterus)
  IC50: 140 nM
Homo sapiens, SK-MEL-5, 72 h, SKMEL5 (skin; SKMELS [sic] in Table 9E)
  IC50: 90 nM
Homo sapiens, SK-MEL-28, 72 h, SKMEL28 (skin)
  IC50: 100 nM
Homo sapiens, SK-N-AS, SKNAS (brain)
  IC50: 120 nM
Homo sapiens, SK-N-SH, SKNSH (brain)
  IC50: 80 nM
Homo sapiens, SK-OV-3, 72 h, SKOV3 (ovary)
  IC50: 90 nM
Homo sapiens, SNB-75, 72 h, SNB75 (brain)
  IC50: 220 nM
Homo sapiens, SU-DHL10, 72 h, SU-DHL-10 (hematological)
  IC50: 210 nM
Homo sapiens, SU-DHL-6, 72 h, SU-DHL-6 (hematological)
  IC50: 60 nM
Homo sapiens, SW-620, 72 h, SW620 (colon)
  IC50: 80 nM
Homo sapiens, TE-671, 72 h, TE671 (muscle)
  IC50: 730 nM
Homo sapiens, THP-1, 72 h, THP-1 (hematological)
  IC50: 200 nM
Homo sapiens, U2OS, U20S (bone; U2OS in Table 9E)
  IC50: 70 nM
Homo sapiens, U-87 MG, U87MG (brain)
  IC50: 150 nM
Homo sapiens, UMUC3, 72 h, UMUC3 (bladder)
  IC50: 190 nM
Homo sapiens, UO-31, 72 h, UO31 (kidney)
  IC50: 50 nM
Homo sapiens, WSU-NHL, WSU-NHL (hematological)
  IC50: 40 nM
NCI-H358M, NCIH358M (lung)
  IC50: 140 nM
PBMC, PBMC (hematological)
  IC50: 20 nM
RD-ES, RDES (bone)
  IC50: 40 nM
